Key:
[1] = ABTS radical scavenging assay; conditions: for Effect of pH and ionic strength on ABTS antioxidant activity: ABTS radical solution in HPSEC buffers, 344 and 700 mM, pH 3.0, 5.0, 7.0; for ABTS radical scavenging value: SD
Method: ABTS radical activity is based on an antioxidant’s capacity to scavenge the ABTS’s oxidized state. For this, ABTS radical scavenging activity was performed in a 96-well microplate, following the method described by. The absorbance was measured with a multidetection plate reader (Synergy H1, Winooski, VT, USA). For each sample, the standard and control analyses were duplicated. All measurements were performed in duplicate. The results are expressed in µmol of Trolox equivalents/µmol of peptide. To test the antioxidant activity under different pH and ionic strength conditions, the ABTS radical solution was prepared using the same buffers employed in the HPSEC analysis.

[2] = test system: Escherichia coli ATCC 25922; experiment: Growth inhibition curves; type: cell-based; conditions: HdKTLR 262, HdKNL 262, HdPPP 130 (5% DMSO), HdVLPN 204, HdLPN 227 µg/mL; MH broth, OD 600 nm hourly, 24 h, 37 °C
Method: (§1) The antimicrobial activity of the mucus samples was evaluated following the method by against the following pathogenic bacteria: Gram-negative Escherichia coli ATCC 25922, Salmonella enterica serovar Enteritidis ATCC 13076, and Pseudomonas aeruginosa ATCC 27853 and Gram-positive Staphylococcus aureus ATCC 6538. The mucus samples were combined with a 1/10 ratio of inoculum containing 1% (v/v) of bacteria cultured for 24 h in MH broth. For the positive control, deionized water was used instead of mucus samples with a 1% inoculum, while deionized water with MH served as the negative control. A control using chloramphenicol was made at a concentration of 16 µg/mL for E. coli, S. enterica, and P. aeruginosa and 100 µg/mL for S. aureus. The mixture was then transferred to a 96-well microplate (Sarstedt, Germany), and the optical density (OD) at 600 nm was measured every hour for a 24 h period at 37 °C using a microplate reader (Multiskan GO, Thermo Scientific, Finland). An increase in OD indicated bacterial growth.

[3] = test system: Pseudomonas aeruginosa ATCC 27853; experiment: Growth inhibition curves; type: cell-based; conditions: HdKTLR 262, HdKNL 262, HdPPP 130 (5% DMSO), HdVLPN 204, HdLPN 227 µg/mL; MH broth, OD 600 nm hourly, 24 h, 37 °C
Method: as §1

[4] = test system: Salmonella enterica serovar Enteritidis ATCC 13076; experiment: Growth inhibition curves; type: cell-based; conditions: HdKTLR 262, HdKNL 262, HdPPP 130 (5% DMSO), HdVLPN 204, HdLPN 227 µg/mL; MH broth, OD 600 nm hourly, 24 h, 37 °C
Method: as §1

[5] = test system: Staphylococcus aureus ATCC 6538; experiment: Growth inhibition curves; type: cell-based; conditions: HdKTLR 262, HdKNL 262, HdPPP 130 (5% DMSO), HdVLPN 204, HdLPN 227 µg/mL; MH broth, OD 600 nm hourly, 24 h, 37 °C
Method: as §1

P. aeruginosa biofilm = experiment: Antibiofilm activity (crystal violet); type: cell-based, Pseudomonas aeruginosa; conditions: 24 h incubation, HdKTLR 262, HdKNL 262, HdPPP 130, HdVLPN 204, HdLPN 227 µg/mL, OD 595 nm
Method: The antibiofilm activity was determined according to the following method, with some modifications. Taking the microplate from 24 h inhibition growth curves, the contents of the plate were discarded, and each well was carefully washed three times with distilled water to remove non-adherent cells. The adhered cells were fixed with 150 µL of methanol for 10 min. Then, the methanol was discarded, the plates were left to dry, and then, the fixed biofilm was stained with […] of crystal violet (CV) for 10 min. Excess stain was rinsed out by placing the plate under slow-running tap water. Once the plates were air-dried, the dye attached to the adherent cells was resolubilized by adding 150 µL of 33% (v/v) glacial acetic acid and agitated for 15 min. The optical density of the solution obtained was measured at 595 nm using a multidetection plate reader (Synergy H1, Winooski, VT, USA). All tests were carried out in duplicate, with a positive control using an inoculated culture in MH broth and a negative control using MH broth only. The results are presented as the percentage of biofilm formation, calculated according to the following formula, where the OD of the sample is the measured OD of the inoculated medium mixed with the peptides, and the OD of the positive control is the OD measured for the positive control.% Biofilm formation = (ODsample/ODpositive control) × 100(1)

Bifidobacterium species = experiment: Probiotic growth curves; type: cell-based; conditions: B. longum BG3, B. animalis Bo, BB-12, BLC, B. breve; HdKTLR 262, HdKNL 262, HdVLPN 204, HdLPN 227 µg/mL; MRS broth, 24 h, 37 °C, OD 650 nm
Method: (§2) The effect of the peptides on probiotics was evaluated using the following probiotic Lactobacillus and Bifidobacterium species: L. acidophilus Ki (LAS), L. acidophilus La5, L. casei L26, L. plantarum 299V, L. rhamnosus RII, B. longum BG3 B. animalis spp. lactis BB12, B. animalis BLC, and B. animalis Bo. All the assays were performed using MRS broth supplemented with 0.5 g/L of L-cysteine. The peptides were combined with a 1/10 ratio of inoculum, containing 2% (v/v) of the probiotic and cultured for […] in MRS broth. For the positive control, deionized water was used instead of the peptides, with a 2% inoculum, while deionized water with MRS served as the negative control. Peptide wells with Bifidobacterium were sealed with paraffin to assure anaerobiosis conditions. The bacterial growth was monitored at 650 nm for 24 h at 37 °C in a microplate reader (Multiskan GO, Thermo Scientific, Finland), and the optical density (OD) was measured hourly. Growth curves were created by transforming the absorbance values in natural logarithms ln (Abs).

Lactobacillus species = experiment: Probiotic growth curves; type: cell-based; conditions: L. acidophilus Ki, La5, L. plantarum 299V, L. casei, L. rhamnosus RII; HdKTLR 262, HdKNL 262, HdVLPN 204, HdLPN 227 µg/mL; MRS broth, 24 h, 37 °C, OD 650 nm
Method: as §2

[6] = pH 3 and 344 mM ionic strength, means (n ≥ 3) ± SD
[7] = pH 7.0 and 700 mM ionic strength, means (n ≥ 3) ± SD

Sequence	Effect of pH and ionic strength on ABTS antioxidant activity [1]	ABTS radical scavenging value [1, 6]	ABTS radical scavenging value [1, 7]	Antimicrobial activity (growth inhibition curve) [2]	Antimicrobial activity (growth inhibition curve) [3]	Antimicrobial activity (growth inhibition curve) [4]	Antimicrobial activity (growth inhibition curve) [5]	Biofilm formation versus control (P. aeruginosa biofilm)	Effect on probiotic growth (Bifidobacterium species)	Effect on probiotic growth (Lactobacillus species)	ABTS ([1]; peptide in H2O (HdPPP in DMSO), means (n ≥ 3) ± SD, nd: not detected)
PFPGPLPN [HdLPN]	significant decrease in antioxidant activity	0.012 ± 0.004 µmol TE/µmol of peptide	0.283 ± 0.177 µmol TE/µmol of peptide	did not demonstrate antimicrobial potential	did not demonstrate antimicrobial potential	did not demonstrate antimicrobial potential	did not demonstrate antimicrobial potential	substantially reduced biofilm production	did not inhibit the growth	did not inhibit the growth	
EDNSELGQETPTLR [HdKTLR]	no observable antioxidant activity			did not demonstrate antimicrobial potential	did not demonstrate antimicrobial potential	did not demonstrate antimicrobial potential	did not demonstrate antimicrobial potential	substantially reduced biofilm production	did not inhibit the growth	did not inhibit the growth	
VYPFPGPLPN [HdVLPN]	significant decrease in antioxidant activity	0.163 ± 0.002 µmol TE/µmol of peptide	0.827 ± 0.021 µmol TE/µmol of peptide	did not demonstrate antimicrobial potential	did not demonstrate antimicrobial potential	did not demonstrate antimicrobial potential	did not demonstrate antimicrobial potential	substantially reduced biofilm production	did not inhibit the growth	did not inhibit the growth	
DPPNPKNL [HdKNL]	remained unaffected by a decrease in pH			did not demonstrate antimicrobial potential	did not demonstrate antimicrobial potential	did not demonstrate antimicrobial potential	did not demonstrate antimicrobial potential	substantially reduced biofilm production	did not inhibit the growth	did not inhibit the growth	no antioxidant activity was observed

Reference: PMC11857211, “Bioprospecting Bioactive Peptides in Halobatrachus didactylus Body Mucus: From In Silico Insights to Essential In Vitro Validation” (Marine Drugs, 2025)
